Assay results reported in patent US20140038974A1, “Compositions and Methods for Eye Whitening” (Eye Therapies, LLC, priority 2009, published 2014).
Like-named read-outs stand apart in the source and are kept apart here.

Legend:
[1] = tested on: α-2 over α-1 adrenergic receptors
Log P (Table 1) = format: physicochemical
eye [2] = conditions: for effectiveness at reducing eye redness: both general eye redness and eye redness induced by drug administration
Description: Redness reduction is on a scale from 0.00 to 4.00 with 0.00 denoting the greatest redness reduction and 4.00 denoting no redness reduction. Whitening is on a scale from 0.00 to 4.00 with 0.00 denoting pearly white, glistening color and 4.00 denoting no whitening effect.

[3] = tested on: α-2(a)-(c) adrenergic receptor subtypes; experiment: α-2 receptor subtype preference, α-2(a)-(c) (Table 1); format: binding
[4] = tested on: conjunctival hyperemia / whiteness of eye; conditions: for subjects reporting reduced hyperemia and increased whiteness in the treated eye: […] brimonidine, one eye, 8 human subjects
Description: (§1) The subjects were administered with the drug in one eye and then asked to assess themselves in the mirror to see if they perceived a difference in conjunctival hyperemia between eyes. The assessments were made 5 minutes after the administration and 4 hours after the administration. After the four hours assessment, the drug was re-administered.

nasal congestion = tested on: nasal congestion
Description: as §1

eye [5] = conditions: […] brimonidine
Description: FIG. 13 is a photograph of both eyes of the person before the drug was administered. FIG. 14A is a close-up photograph of the right eye and FIG. 14B is a close-up photograph of the left eye.

[6] = with or without redness induced by drug administration

Cc1cccc([C@H](C)c2cnc[nH]2)c1C [Dexmedetomidine, dexmedetomidine]
Selectivity [1]: 1660 | logP (Log P (Table 1)): 3 | effectiveness at reducing eye redness (eye [2]): highly effective | further whitening eyes beyond their usual color (eye [2]; [6]): generally ineffective | α-2(a)-(c) [3]: general

Brc1c(NC2=NCCN2)ccc2nccnc12 [Brimonidine, brimonidine]
subjects reporting reduced hyperemia and increased whiteness in the treated eye ([4]; 5 min assessment): eight of eight | subjects reporting reduced hyperemia and increased whiteness in the treated eye ([4]; four hour assessment): eight of eight | effect on redness and whiteness of eyes ([4]; low dose ([…]) brimonidine, Example 3 conclusion): significant reduction of redness and increase of whiteness | subjects reporting reduced nasal congestion in the nostril on the same side as the treated eye (nasal congestion; […] brimonidine, one eye, four hour assessment, 8 human subjects): six of eight | effect on nasal congestion (nasal congestion; in several subjects, nostril on the same side as the treated eye, Example 3 conclusion): reducing nasal congestion | logP (Log P (Table 1)): 1 | further whitening eyes beyond their usual color (eye [2]; after redness inducing drug administration): general ineffectiveness | effectiveness at reducing eye redness (eye [2]): highly effective | Other (pH dependence of effect) (eye [2]; in vivo): >effect lo pH | α-2(a)-(c) [3]: general | cosmetic whitening of an eye (eye [5]; right eye, person with healthy eyes, left eye untreated): noticeably cosmetically whitened | effect on redness and whiteness of an eye (eye [5]; child patient): significant reduction of redness and increase of whiteness | effect on redness and whiteness of an eye (eye [5]; patient with glaucoma receiving Lumigan (bimatoprost 0.03%)): significant reduction of redness and increase of whiteness

Oc1ccc2c(c1)C(Cc1c[nH]cn1)CC2 (stereo not shown) [Fadolmidine, fadolmidine]
Log P (Log P (Table 1)): 2.16 | α-2(a)-(c) [3]: general

guanfacine
effectiveness at reducing eye redness (eye [2]): highly effective | Other (pH dependence of effect) (eye [2]; in vivo): >effect hi pH | Redness Reduction (eye [2]; in vivo): 0.00 | further whitening eyes beyond their usual color (eye [2]; [6]): highly effective | α-2(a)-(c) [3]: 2(a) high
